According to patent US4725578A, “Compounds having therapeutic effect and the preparation thereof” (Tobishi Pharmaceutical Co., Ltd., priority 1986, dated 1988):
“Also recorded” adds a separate entry of the source.

Experiments:
[1] = system: L-1210 cells; experiment: Antineoplastic action against implanted L-1210 cells (ip-ip), survival T/C; format: in vivo, CDFl mice
Method: In this animal test, the antineoplastic action against the implanted tumor was examined in lower animals, in vivo, in respect of the compounds according to the present invention, by using CDFl mice.
To the peritoneal cavity of each group of mice consisting of six CDFl mice per group, 10^6 /0.1 ml of P-388 cells or 10^5 /0.1 ml of L-1210 cells were implanted. […] While to the control groups of CDFl mice, P-388 and L-1210 cells were implanted in the same manner and they were bred without administration of the compounds.
(§1) In the Table, the symbol T/C % means Treatment/Control %, that is the increase in life when the control is 100. The values are obtained by implanting tumor cells to groups of mice (or rats), administering the compound being tested in various amounts every 24 hours after the implantation of the tumor cells and then calculating the ratio, the median survival time of the group to which the compound has been administered to the survival of the control, multiplied by a factor of 100. This method is used in the screening of U.S. National Cancer Institute.
(§2) In Table 7, the symbol "i.P.-i.P." means that the tumor cells are implanted intraperitoneally and the compounds being tested are also administered intraperitoneally. The symbol "TR" is the therapeutic ratio obtained by dividing the dose which provides a maximum T/C value, by the dose which provides a minimum T/C value.

[2] = system: MM2; experiment: MM2 (ip-ip), survival T/C; format: in vivo, mice; settings: for effectiveness against MM2: (see Table 7); for mice continuing to live more than 60 days after implantation (60<): Table 7, MM2 (i.P. - i.P.); for T/C / mice living more than 60 days (60<): additional tests, MM2 (ip-ip)
Method: (§3) In the Table, the symbol T/C % means Treatment/Control %, that is the increase in life when the control is 100. The values are obtained by implanting tumor cells to groups of mice (or rats), administering the compound being tested in various amounts every 24 hours after the implantation of the tumor cells and then calculating the ratio, the median survival time of the group to which the compound has been administered to the survival of the control, multiplied by a factor of 100. This method is used in the screening of U.S. National Cancer Institute. […]
as §2
The term in Table 7, last column "3/6 60<", means that 3 mice out of 6 mice continue to live more than 60 days after the implantation of the tumor cells.

[3] = system: Colon 26; experiment: Colon 26 (ip-ip), survival T/C; format: in vivo; settings: 4 mg/kg × 9
Method: as §1

[4] = system: B-16 melanoma; experiment: B16 melanoma (ip-ip), survival T/C; format: in vivo, mice; settings: for effectiveness against B-16 melanoma: (see Table 7)
Method: as §3, §2

[5] = system: MOPC-104E; experiment: MOPC-104E (ip-ip), survival T/C; format: in vivo; settings: 2 mg/kg × 9 times
Method: as §1

[6] = system: P 388; experiment: P 388 (ip-iv), survival T/C; format: in vivo, mice
Method: as §1
(§4) In Table 9, "iv" and "sc" means that the administration of the compounds is carried out intravenously and the implantation of the tumor cells is carried out subcutaneously.

[7] = system: Yoshida sarcoma; experiment: Yoshida sarcoma (ip-ip), survival T/C; format: in vivo
Method: as §1

[8] = system: P-388 cells; experiment: Antineoplastic action against implanted P-388 cells (ip-ip), survival T/C; format: in vivo, CDFl mice; settings: for T/C % (Treatment/Control %): Table 6, P388, intraperitoneal
Method: To the peritoneal cavity of each group of mice consisting of six CDFl mice per group, 10^6 /0.1 ml of P-388 cells or 10^5 /0.1 ml of L-1210 cells were implanted. […]
In the Table, the symbol T/C % means Treatment/Control %, that is the increase in life when the control is 100. […] This method is used in the screening of U.S. National Cancer Institute.
as §2

[9] = system: Erlich carcinoma; experiment: Erlich carcinoma (sc-ip), inhibition; format: in vivo; settings: 4 mg/kg × 11, after 14 days
[10] = Toxicity test, lethal dose (Litchfield-Wilcoxon); format: in vivo, male 4-weeks CD-1 (ICR) mice; settings: suspension in 0.5% CMC, 7 days observation
Method: With respect to the compounds of this invention, the lethal dose was determined as follows.
By using male 4-weeks CD-1 (ICR) mice consisting of 5 to 10 mice per group, the desired amount of each compound of this invention was suspended in 0.5% CMC solution and the resultant suspension was administered to each mouse intraperitoneally or intravenously. Observing the life or death as well as the general symptome during 7 days after the administration of the compounds, the value of LD50 for each compounds was estimated from the lethal population observed on the basis of the Litchfield-Wilcoxon method.

[11] = Neuropharmacological multidimentional observation (modified Arwin and Smith method); format: in vivo, 4-weeks CD-1 (IRC) mice; settings: intraperitoneal, 1 to 20 mg/kg, observed every 30 minutes for 180 minutes, compared with patterns of known medicines
Method: In this test, other pharmacological effects which may be obtained by these compounds were investigated.
Each compound of the invention was intraperitoneally administered to 4-weeks CD-1 (IRC) mice (Nippon Charles Liver K.K.) in the dose of 1 to 20 mg/kg with using mice groups consisting of three mice per group. […] The observation was carried out according to the modified Arwin method and Smith method, i.e., neuropharmacological multidimentional observation method.
Making a comparison between the symptom observed and the pattern of the pharmacological action due to the known medicines, it has been discovered that each compound of the invention has the following pharmacological effect.

[12] = system: Colon. 38; experiment: Colon. 38 (sc-ip), inhibition; format: in vivo; settings: 8 mg/kg × 11, after 17 days
[13] = system: Lewis Lung Carcinoma; experiment: Lewis Lung Carcinoma (sc-ip), inhibition; format: in vivo; settings: 8 mg/kg × 11, after 17 days
[14] = system: P 388; experiment: P 388 (sc-iv), survival T/C; format: in vivo, mice
Method: as §1, §4

## CCCCCCOc1ccc2cc1Oc1ccc(cc1)CC1C(=O)N(C)C(C2)C(=O)NC(C)C(=O)NC(C)C(=O)N(C)C(Cc2ccc(OC)cc2)C(=O)NC(C)C(=O)N1C (stereo not drawn) [Ex. 2, n-hexylether of the compound TPC-A]
[1]; Table 7, dose 0.5 mg/kg
  L1210 (i.P. - i.P.) T/C (%): 115.6%
[1]; Table 7, dose 2 mg/kg
  L1210 (i.P. - i.P.) T/C (%): 126.6%
[1]; Table 7, dose 4 mg/kg
  L1210 (i.P. - i.P.) T/C (%): 130.9%
[2]
  effectiveness against MM2: effective
[2]; dose 2 mg/kg
  mice continuing to live more than 60 days after implantation (60<): 3/6
[2]; dose 4 mg/kg
  mice continuing to live more than 60 days after implantation (60<): 1/7
[2]; Table 7, dose 0.5 mg/kg
  MM2 (i.P. - i.P.) T/C (%): 110.3%
[2]; Table 7, dose 2 mg/kg
  MM2 (i.P. - i.P.) T/C (%): 129.3%
[2]; Table 7, dose 4 mg/kg
  MM2 (i.P. - i.P.) T/C (%): 161.8%
[3]
  T/C: 133.7%
  mice living more than 60 days (60<): 2/6
[4]
  effectiveness against B-16 melanoma: effective
[4]; Table 7, dose 0.5 mg/kg
  B16 (i.P. - i.P.) T/C (%): 130.5%
[4]; Table 7, dose 2 mg/kg
  B16 (i.P. - i.P.) T/C (%): 158.2%
[4]; Table 7, dose 4 mg/kg
  B16 (i.P. - i.P.) T/C (%): 136.2%
[5]
  T/C: 145.3%
[6]; 5 mg/kg × 5
  T/C: 118.9%
[7]; 0.1 mg/kg × 5
  T/C: 129.7%
[7]; 0.5 mg/kg × 5
  T/C: 173.6%
[7]; 1 mg/kg × 5
  T/C: 160.4%
[7]; 2.5 mg/kg × 5
  T/C: 149.5%
[8]; dose 0.05 mg/kg
  T/C % (Treatment/Control %): 110.3%
[8]; dose 0.5 mg/kg
  T/C % (Treatment/Control %): 137.3%
[8]; dose 2 mg/kg
  T/C % (Treatment/Control %): 153.5%
[8]; dose 4 mg/kg
  T/C % (Treatment/Control %): 173.0%
[8]; Table 7, dose 0.05 mg/kg
  P388 (i.P. - i.P.) T/C (%): 130.4%
[8]; Table 7, dose 0.5 mg/kg
  P388 (i.P. - i.P.) T/C (%): 143.5%
[8]; Table 7, dose 2 mg/kg
  P388 (i.P. - i.P.) T/C (%): 150.0%
[8]; Table 7, dose 5 mg/kg
  P388 (i.P. - i.P.) T/C (%): 176.1%

## COc1ccc(CC2C(=O)NC(C)C(=O)N(C)C3Cc4ccc(cc4)Oc4cc(ccc4OC(C)=O)CC(C(=O)NC(C)C(=O)NC(C)C(=O)N2C)N(C)C3=O)cc1 (stereo not drawn) [Ex. 22]
[1]; Table 7, dose 0.05 mg/kg
  L1210 (i.P. - i.P.) T/C (%): 100.9%
[1]; Table 7, dose 0.5 mg/kg
  L1210 (i.P. - i.P.) T/C (%): 110.0%
[1]; Table 7, dose 2 mg/kg
  L1210 (i.P. - i.P.) T/C (%): 114.4%
[1]; Table 7, dose 5 mg/kg
  L1210 (i.P. - i.P.) T/C (%): 120.0%
[1]; Table 7, dose 10 mg/kg
  L1210 (i.P. - i.P.) T/C (%): 128.9%
[9]
  Inhibition: 46.9%
[2]
  effectiveness against MM2: effective
[2]; Table 7, dose 0.5 mg/kg
  MM2 (i.P. - i.P.) T/C (%): 102.5%
[2]; Table 7, dose 2 mg/kg
  MM2 (i.P. - i.P.) T/C (%): 109.2%
[2]; Table 7, dose 5 mg/kg
  MM2 (i.P. - i.P.) T/C (%): 117.8%
[2]; Table 7, dose 10 mg/kg
  MM2 (i.P. - i.P.) T/C (%): 120.9%
[10]; intraperitoneal
  LD50 and 95% Confidence Limit: 18.4(16.9-20.0) mg/kg
[10]; intravenous
  LD50 and 95% Confidence Limit: 20.0(15.2-26.3) mg/kg
[11]; listed as Acetic acid ester of TPC-A
  Pharmacological effect estinated: emetic action; also recorded: psychotropic action; also recorded: antidiuretic action
[4]
  effectiveness against B-16 melanoma: effective
[4]; Table 7, dose 0.5 mg/kg
  B16 (i.P. - i.P.) T/C (%): 116.9%
[4]; Table 7, dose 2 mg/kg
  B16 (i.P. - i.P.) T/C (%): 128.5%
[4]; Table 7, dose 4 mg/kg
  B16 (i.P. - i.P.) T/C (%): 147.8%
[4]; Table 7, dose 8 mg/kg
  B16 (i.P. - i.P.) T/C (%): 141.1%
[6]; 1.11 mg/kg × 9
  T/C: 112.5%
[6]; 5.56 mg/kg × 9
  T/C: 171.5%
[8]; dose 0.05 mg/kg
  T/C % (Treatment/Control %): 133.3%
[8]; dose 0.5 mg/kg
  T/C % (Treatment/Control %): 155.6%
[8]; dose 2 mg/kg
  T/C % (Treatment/Control %): 168.9%
[8]; dose 10 mg/kg
  T/C % (Treatment/Control %): 194.7%
[8]; Table 7, dose 0.05 mg/kg
  P388 (i.P. - i.P.) T/C (%): 133.3%
[8]; Table 7, dose 0.5 mg/kg
  P388 (i.P. - i.P.) T/C (%): 155.6%
[8]; Table 7, dose 2 mg/kg
  P388 (i.P. - i.P.) T/C (%): 168.9%
[8]; Table 7, dose 5 mg/kg
  P388 (i.P. - i.P.) T/C (%): 175.8%
[8]; Table 7, dose 10 mg/kg
  P388 (i.P. - i.P.) T/C (%): 194.7%
[12]
  Inhibition: 51.9%
[13]
  Inhibition: 65.4%

## COc1ccc(C[C@H]2C(=O)N[C@H](C)C(=O)N(C)[C@@H]3Cc4ccc(cc4)Oc4cc(ccc4O)C[C@H](C(=O)N[C@@H](C)C(=O)N[C@@H](C)C(=O)N2C)N(C)C3=O)cc1.COc1ccc(C[C@H]2C(=O)N[C@H](C)C(=O)N(C)[C@@H]3Cc4ccc(cc4)Oc4cc(ccc4O)C[C@H](C(=O)N[C@@H](C)C(=O)N[C@@H](C)C(=O)N2C)N(C)C3=O)cc1.COc1ccc(C[C@H]2C(=O)N[C@H](C)C(=O)N(C)[C@@H]3Cc4ccc(cc4)Oc4cc(ccc4O)C[C@H](C(=O)N[C@@H](C)C(=O)N[C@@H](C)C(=O)N2C)N(C)C3=O)cc1.COc1ccc(C[C@H]2C(=O)N[C@H](C)C(=O)N(C)[C@@H]3Cc4ccc(cc4)Oc4cc(ccc4O)C[C@H](C(=O)N[C@@H](C)C(=O)N[C@@H](C)C(=O)N2C)N(C)C3=O)cc1.O.O.O.O.O [TPC-A]
[2]; 2.78 mg/kg × 9
  T/C: 138.7%
[2]; 5.56 mg/kg × 9
  T/C: 231.2%
  mice living more than 60 days (60<): 2/6
[2]; 6.94 mg/kg × 9
  T/C: 184.3%
  mice living more than 60 days (60<): 1/7
[10]; intravenous
  LD50 and 95% Confidence Limit: 34.0(28.1-41.2) mg/kg
[14]; 5 mg/kg × 7
  T/C: 179.6%
  mice living more than 60 days (60<): 2/7
[14]; 7 mg/kg × 7
  T/C: 153.7%
  mice living more than 60 days (60<): 1/7
[14]; 10 mg/kg × 7
  T/C: 127.8%
[11]
  Pharmacological effect estinated: emetic action; also recorded: anorexigenic action; also recorded: psychotropic action; also recorded: vasoconstrictive; also recorded: papaverine action; also recorded: antiper-
[6]; 5.56 mg/kg × 9
  T/C: 121.4%
[8]; dose 10 mg/kg
  T/C % (Treatment/Control %): 187.4%
